Source: US20150283120A1, “ANTIBIOTIC METHODS AND COMPOSITIONS FOR BACTERIA INFECTIONS” (THE UNIVERSITY OF CHICAGO, priority 2012, published 2015)
Where “and” joins values, the source holds several entries; their conditions need not be identical. Identical values can stand only once. Like-named read-outs stand apart in the source and are kept apart here.

Key:
strain 923 [1] = test: Oxacillin MIC of strain 923 (assay development)
[2] = system: vraSR transcription (Pvra::lux); type: cell-based, Staphylococcus aureus
Procedure, shortened: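 Secondary screen: compound at 10 μM plus oxacillin 2 μg/mL, four biological replicates, luminescence read every 15 minutes. RG and RL are OD600 or max LU with compound plus oxacillin over pooled same-plate oxacillin controls; RL <0.8 repressor, >1.2 stimulator, 0.80-1.2 neutral.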

[3] = system: MRSA strain USA300-isolate 923; test: Checkerboard MIC testing of compounds with oxacillin; type: cell-based, Staphylococcus aureus; settings: Staphylococcus aureus; strain 923; oxacillin alone (Men 0 μM)
[4] = system: vraSR expression (923 Pvra-lux); test: Validation of test strain: luminescence as a function of oxacillin concentration; settings: strain 923 Pvra-lux, luminescence 2 hours after induction
strain 11095 = test: Checkerboard oxacillin + compound, strain 11095; design: MIC OX / MIC OX (+) / MIC cmpd alone: unit not given beside the values; settings: oxacillin alone
strain 923 [5] = settings: strain 923, CLSI guidelines; cited from earlier work
diverse MRSA strains = test: MIC of oxacillin with a single concentration of compound in multiple MRSA strains; type: cell-based, Staphylococcus aureus; settings: Staphylococcus aureus
Description: Testing potentiation of oxacillin by compounds in multiple MRSA strains: In order to be considered a synergistic agent in therapy of MRSA infection, it must be effective as a potentiator in diverse MRSA strains. To determine whether the oxacillin potentiators were effective against MRSA strains besides USA300, a single effective concentration of three compounds that were not known as antibiotics—gossypol, pyrvinium and clomiphene—were tested against multiple MRSA genetic backgrounds. Each compound was tested at a single optimal concentration, determined in the checkerboard assays, in combination with various concentrations of oxacillin. The strains included in this panel were from diverse genetic backgrounds as determined by multilocus sequence type (MLST) and contained a variety of SCCmec types. […] The MIC80 was […] for clomiphene, gossypol, and pyrvinium, respectively.

MRSA strain 8004-01 = test: Checkerboard oxacillin + compound, strain 8004-01; design: MIC OX / MIC OX (+) / MIC cmpd alone: unit not given beside the values; settings: strain 8004-1 (ST239); oxacillin alone; listed as OX

SMILES: Cc1onc(-c2ccccc2)c1C(=O)N[C@@H]1C(=O)N2[C@@H]1SC(C)(C)[C@@H]2C(=O)O [oxacillin]
- MIC (strain 923 [1]; Staphylococcus aureus, 923, read-out: MIC of oxacillin, 923 containing pPvra-lux, 96-well format): 5 µg/mL
- MIC (strain 923 [1]; Staphylococcus aureus, 923, read-out: MIC of oxacillin, strain 923, 96-well format): 8 µg/mL
- average LU of pooled positive controls ([2]; grown in the presence of oxacillin 2 μg/mL, all runs of the secondary assay): 144 (SD+/−16) LU
- induction of Pvra::lux ([2]; oxacillin 2 μg/mL against no oxacillin): 2.7 fold
- MIC [3]: 32 µg/mL
- minimum concentration sufficient for maximal vraSR expression [4]: 2 µg/mL
- MIC OX (strain 11095): 512
- 24-h oxacillin MIC (strain 923 [5]): 16 to 32 µg/mL
- MIC (diverse MRSA strains; MRSA, in the absence of compound, range over strains, read-out: MICs of oxacillin for the strains of the panel): 2 to 256 µg/mL
- MIC (diverse MRSA strains; MRSA, isolate Q2461 (SCCmec VT, ST 59), Ox alone, read-out: MIC Ox): 8 µg/mL
- MIC50 (diverse MRSA strains; MRSA, panel of strains, absence of compound, read-out: MIC50 of oxacillin): 16 µg/mL
- MIC (diverse MRSA strains; isolate 923 (SCCmec IV, ST 8), Ox alone, read-out: MIC Ox): 16 µg/mL
- MIC (diverse MRSA strains; isolate 1176 (SCCmec II, ST 231), Ox alone, read-out: MIC Ox): 32 µg/mL
- MIC (diverse MRSA strains; isolate 2169 (SCCmec IV, ST 72), Ox alone, read-out: MIC Ox): 16 µg/mL
- MIC (diverse MRSA strains; isolate 8004-01 (SCCmec III, ST 239), Ox alone, read-out: MIC Ox): 256 µg/mL
- MIC (diverse MRSA strains; isolate 8010-01 (SCCmec IV, ST 8), Ox alone, read-out: MIC Ox): 8 µg/mL
- MIC (diverse MRSA strains; isolate 8227-01 (SCCmec IV, ST 87), Ox alone, read-out: MIC Ox): 4 µg/mL
- MIC (diverse MRSA strains; isolate 11095 (SCCmec II, ST 105), Ox alone, read-out: MIC Ox): 128 µg/mL
- MIC (diverse MRSA strains; isolate 13113 (SCCmec II, ST 5), Ox alone, read-out: MIC Ox): 8 µg/mL
- MIC (diverse MRSA strains; isolate 13354 (SCCmec IV, ST 5), Ox alone, read-out: MIC Ox): 8 µg/mL
- MIC (diverse MRSA strains; isolate 14315 (SCCmec IV, ST 1), Ox alone, read-out: MIC Ox): 16 µg/mL
- MIC50 (diverse MRSA strains; panel of 11 MRSA isolates, Ox alone, read-out: MIC 50 of Ox): 16 µg/mL
- MIC80 (diverse MRSA strains; panel of 11 MRSA isolates, Ox alone, read-out: MIC 80 of Ox): 128 µg/mL
- MIC OX (MRSA strain 8004-01): 512 and >256
